Values quoted from earlier work, collected in patent US20230000809A1, “TREATMENT OF DISORDERS ARISING FROM GENETIC MUTATION” (priority 2021, published 2023).
Where a name gives a salt, the structure may show the parent alone.

Columns and labels:
[1] = tested on: gadolinium enhancing lesions; conditions: RRMS patients; after 24 weeks of treatment as compared to placebo
[2] = tested on: nuclear factor kappa B (NF-κB)-dependent transcription of TNF-α induced genes; conditions: human endothelial cells, in vitro

SMILES | number of gadolinium enhancing lesions [1] | effect on NF-κB-dependent transcription of TNF-α induced genes [2]
COC(=O)/C=C/C(=O)OC [BG-12] | significant reduction | 
COC(=O)/C=C/C(=O)OC [DMF, dimethyl fumarate] |  | inhibitory effect
